Results on 14 compounds are retold here after ChEMBL document CHEMBL1152035, “Rational design of potent carboxylic acid based bisubstrate inhibitors of ras farnesyl protein transferase” (Bioorg Med Chem Lett, 1994).

As a reminder, the IC50 is the point on the concentration scale where inhibition reaches its midpoint.

This assay concerns the target Protein farnesyltransferase (Homo sapiens, UniProt P49354+P49356). The assay can be described thus: Inhibition of ras Farnesyltransferase. The format is protein-complex assay.
The compound `CC(C)=CCC/C(C)=C/CC/C(C)=C/CN[C@@H](CCC(=O)N[C@H](C(=O)N[C@@H](CC(C)C)C(=O)N[C@@H](CO)C(=O)O)C(C)C)C(=O)O` yielded a half-inhibitory concentration (IC50) of 3.4 µM.
`CC(C)=CCC/C(C)=C/CC/C(C)=C/CN[C@H](CCC(=O)N[C@H](C(=O)N[C@@H](CC(C)C)C(=O)N[C@@H](CO)C(=O)O)C(C)C)C(=O)O` gave a concentration for half-maximal inhibition (IC50) of 14 µM.
To `CC(C)=CCC/C(C)=C/CC/C(C)=C/CC(CCCC(=O)N[C@H](C(=O)N[C@@H](CC(C)C)C(=O)N[C@@H](CO)C(=O)O)C(C)C)C(=O)O` (some centres undefined) belongs 1.2 µM; to `CC(C)=CCC/C(C)=C/CC/C(C)=C/CC(CCCCC(=O)N[C@H](C(=O)N[C@@H](CC(C)C)C(=O)N[C@@H](CO)C(=O)O)C(C)C)C(=O)O` (some centres undefined), 1.8 µM; to `CC(C)=CCC/C(C)=C/CC/C(C)=C/CC(CCC(=O)N[C@H](C(=O)N[C@@H](CC(C)C)C(=O)N[C@@H](CO)C(=O)O)C(C)C)C(=O)NCP(=O)(O)O` (some centres undefined), 0.15 µM.
To `CC(C)=CCC/C(C)=C/CC/C(C)=C/CC(CC(=O)N[C@H](C(=O)N[C@@H](CC(C)C)C(=O)N[C@@H](CO)C(=O)O)C(C)C)C(=O)O` (some centres undefined) belongs 4.5 µM.
As to `CC(C)=CCC/C(C)=C/CC/C(C)=C/CCCCC(=O)N[C@H](C(=O)N[C@@H](CC(C)C)C(=O)N[C@@H](CO)C(=O)O)C(C)C`, the IC50 is > 360 µM.
To `CC(C)=CCC/C(C)=C/CC/C(C)=C/CC(C[C@H](NC(=O)OC(C)(C)C)C(=O)N[C@H](C(=O)N[C@@H](CC(C)C)C(=O)N[C@@H](CO)C(=O)O)C(C)C)C(=O)O` (some centres undefined) belongs 20 µM; to `CC(C)=CCC/C(C)=C/CC/C(C)=C/CC(CCC(=O)N[C@H](C(=O)N[C@@H](CC(C)C)C(=O)N[C@@H](CO)C(=O)O)C(C)C)C(=O)O` (some centres undefined), 0.9 µM; to `CCOC(=O)C(C/C=C(\C)CC/C=C(\C)CCC=C(C)C)CCC(=O)N[C@H](C(=O)N[C@@H](CC(C)C)C(=O)N[C@@H](CO)C(=O)O)C(C)C` (some centres undefined), > 360 µM.
To `CCCCCCCCCCCCC(CCC(=O)N[C@H](C(=O)N[C@@H](CC(C)C)C(=O)N[C@@H](CO)C(=O)O)C(C)C)C(=O)O` (some centres undefined) belongs 10 µM; to `CC(C)=CCC/C(C)=C/CC/C(C)=C/CNC(=O)C(CCC(=O)N[C@H](C(=O)N[C@@H](CC(C)C)C(=O)N[C@@H](CO)C(=O)O)C(C)C)C(=O)O` (some centres undefined), 4.4 µM; to `CC(C)=CCC/C(C)=C/CC/C(C)=C/C(=O)N[C@@H](CCC(=O)N[C@H](C(=O)N[C@@H](CC(C)C)C(=O)N[C@@H](CO)C(=O)O)C(C)C)C(=O)O` (stereo in doubt; 28 (L)), 0.033 µM.
To `CC(C)=CCC/C(C)=C/CC/C(C)=C/C(=O)N[C@@H](CCC(=O)N[C@H](C(=O)N[C@@H](CC(C)C)C(=O)N[C@@H](CO)C(=O)O)C(C)C)C(=O)O` (stereo in doubt; 29 (D)) belongs 3.4 µM.
